Experimental data: paper PMC5607274, “An iterative compound screening contest method for identifying target protein inhibitors using the tyrosine-protein kinase Yes” (Scientific Reports, 2017)

Target: T1, human recombinant Yes [a.a. 2–543 (end)] (Homo sapiens, UniProt P07947)
T1 construct: human recombinant Yes [a.a; 2–543 (end)]; purchased BPS Bioscience 40488
Experiment: ADP-Glo kinase assay, inhibition rates of Yes phosphorylation activity (first and second screening)
Type: biochemical
Details: first screening; mean of n = 4 wells; 10 μmol L−1 compound
Summary of the method: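 Hits from a first pass were rescreened after re-dissolution from fresh powder. The first pass reported the mean inhibition rate of quadruplicate wells per compound. Activity was that of recombinant human Yes [a.a. 2–543] kinase, read out with the ADP-Glo ADP-detection method.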

T1 sequence (P07947 2-543): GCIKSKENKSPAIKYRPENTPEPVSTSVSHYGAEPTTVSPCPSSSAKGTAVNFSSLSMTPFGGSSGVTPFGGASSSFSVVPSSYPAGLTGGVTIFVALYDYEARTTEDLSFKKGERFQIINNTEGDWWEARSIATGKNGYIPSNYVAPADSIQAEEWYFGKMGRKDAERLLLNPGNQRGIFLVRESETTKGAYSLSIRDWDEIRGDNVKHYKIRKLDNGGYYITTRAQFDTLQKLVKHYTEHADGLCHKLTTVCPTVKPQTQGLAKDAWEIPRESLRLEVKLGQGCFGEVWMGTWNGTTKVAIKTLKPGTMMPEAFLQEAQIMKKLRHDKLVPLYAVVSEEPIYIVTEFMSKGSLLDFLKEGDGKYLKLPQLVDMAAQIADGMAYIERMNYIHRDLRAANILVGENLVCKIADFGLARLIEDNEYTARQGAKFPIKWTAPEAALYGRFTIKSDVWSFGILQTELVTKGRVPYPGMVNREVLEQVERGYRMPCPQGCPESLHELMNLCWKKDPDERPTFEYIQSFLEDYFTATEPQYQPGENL

First screening IR (inhibition rate) | Structure (SMILES)
45% | COc1ccc(CN2CCN(Cc3c(-c4ccccc4)nc4ccccn34)CC2)cc1OC [Compound Z89207636]
5% | Cc1ccc(-c2c(C)sc3nc(CN4CCN(CC(=O)N5CCOCC5)CC4)[nH]c(=O)c23)cc1 [Compound Z89215884]
2% | COc1ccc(S(=O)(=O)N(C)C2CCS(=O)(=O)C2)cc1 (centres unmarked) [Compound Z89320750]
2% | Cc1ccc(S(=O)(=O)N(C)C2CCS(=O)(=O)C2)cc1C (centres unmarked) [Compound Z89320796]
17% | CN(C1CCS(=O)(=O)C1)S(=O)(=O)c1cc(Cl)cc(Cl)c1 (centres unmarked) [Compound Z89320874]
10% | CCc1ccc(S(=O)(=O)N(C)C2CCS(=O)(=O)C2)cc1 (centres unmarked) [Compound Z89320983]
1% | CCN(C1CCS(=O)(=O)C1)S(=O)(=O)c1cc(Br)ccc1C (centres unmarked) [Compound Z89358343]
10% | CC1Cc2cc(C(=O)NC3(C)CCS(=O)(=O)C3)ccc2N1S(C)(=O)=O (centres unmarked) [Compound Z89460412]
9% | Cc1oc(-n2cccc2)c(C#N)c1C(=O)Nc1cccc(/C=C/c2ccccn2)c1 [Compound Z89489183]
17% | Cc1noc(C)c1COc1ccccc1C(=O)NCCSc1ccc(Cl)cc1 [Compound Z89513568]
1% | O=C(/C=C/c1ccsc1)NC(c1ccccc1)c1cccs1 (centres unmarked) [Compound Z89582531]
-12% | Cc1cc(/C=C/C(=O)N2CCN(C3CCS(=O)(=O)C3)CC2)c(C)n1-c1ccc2c(c1)OCO2 (centres unmarked) [Compound Z89622401]
-2% | Cc1ccc(C(=O)OCc2nc(N)nc(Nc3ccccc3)n2)s1 [Compound Z89671452]
0% | Cc1nn(Cc2ccccc2)c(Cl)c1C(=O)OCc1nc(N)nc(Nc2ccccc2)n1 [Compound Z89784395]
22% | Cc1ccc(Cn2nc(C)c(C(=O)OCc3nc(N)nc(Nc4ccccc4)n3)c2Cl)cc1 [Compound Z89857426]
4% | c1csc(-c2noc(CSc3nnc(C4CC4)n3C3CC3)n2)c1 [Compound Z90118492]
11% | CCn1ncc2c(C(=O)OC)cc(-c3ccccc3)nc21 [Compound Z90171664]
20% | CCn1ncc2c(C(=O)OC)cc(-c3cccs3)nc21 [Compound Z90171904]
-8% | O=S(=O)(c1c(Cl)cccc1Cl)N1CCN(Cc2nc(-c3cccc(Cl)c3)no2)CC1 [Compound Z90231169]
-3% | O=S(=O)(c1ccccc1Cl)N1CCN(Cc2nc(-c3cccc(Cl)c3)no2)CC1 [Compound Z90240663]
-1% | COC(=O)c1cc(-c2ccc(F)cc2)nc2c1c(C)nn2C1CCS(=O)(=O)C1 (centres unmarked) [Compound Z90289702]
26% | COC(=O)c1cc(-c2ccc(C)cc2)nc2c1cnn2C(C)C [Compound Z90671680]
-18% | Cn1c(CNS(=O)(=O)c2ccc(C(F)(F)F)cc2)nc2ccccc21 [Compound Z90694917]
-7% | CCCn1c(C)cc(-c2csc(NC(=O)CCN3C(=O)COc4ccccc43)n2)c1C [Compound Z90896104]
0% | O=C(CCCC1CCCCC1)Nc1ccc(-c2cnc[nH]2)cc1 [Compound Z91026356]
1% | CC(NC(=O)CCc1c[nH]c2ccccc12)c1cc2ccccc2o1 (centres unmarked) [Compound Z91037735]
2% | COC(=O)c1cc(-c2ccc(OC)c(OC)c2)nc2c1c(C)nn2C1CCS(=O)(=O)C1 (centres unmarked) [Compound Z91043666]
-6% | COC(=O)c1cc(-c2ccccc2F)nc2c1cnn2C(C)C [Compound Z91043804]
5% | CC(C)C(NC(=O)c1ccc(S(=O)(=O)N(C)C)cc1)c1ccc2c(c1)OCCCO2 (centres unmarked) [Compound Z91218489]
